Results published in patent publication US20090209512A1, “NEUROGENESIS INDUCER OR NEUROPATHY THERAPEUTIC AGENT COMPRISING ALKYL ETHER DERIVATIVE OR SALT THEREOF” (Toyama Chemical Co., Ltd., priority 2006, published 2009).

Assays:
[1] = system: cultured neural stem cells; experiment: Effect on differentiation of cultured neural stem cell (Tuj1-positive cell ratio); format: cell-based, ICR mouse
Method: Cultured neural stem cells were prepared according to the partially modified method of Hirabayashi (Development, 2004, 131(12), p. 2791-2801). The cerebrum was removed from an ICR mouse embryo (embryonic day 14) and incubated in artificial cerebrospinal fluid (124 mM NaCl, 5 mM KCl, 1.3 mM MgCl2, 2 mM CaCl2, 26 mM NaHCO3, 10 mM D-Glucose, pH 7.4) containing 0.0625% trypsin and 0.1 mg/mL of DNaseI at 37° C. for 5 min. A trypsin inhibitor (final concentration: 0.35 mg/mL) was then added and the mixture was centrifuged at 800 rpm for 5 min. The obtained pellet was dispersed by pipetting in a neural stem cell culture medium (DMEM/F-12 culture medium containing 20 ng/mL basic fibroblast growth factor, 20 ng/mL epidermal growth factor and B27 supplement (Invitrogen)) to obtain single cell suspension. […]
After 3 days of culturing, the cells were washed with phosphate-buffered saline (PBS), fixed with 4% paraformaldehyde/phosphate buffer, treated with 0.3% Triton X-100/PBS solution at room temperature for 5 minutes, washed with PBS, and incubated with 0.5% skim milk at room temperature for 1 hour. […] The cells were washed with PBS and observed under fluorescence microscope, and the number of the Tuj1-positive cells emitting red fluorescence was counted, and its ratio against the total cell number was calculated as the differentiation ratio into neurons representing a neurogenesis inducing effect.

Male DBA/2J mice = experiment: Novelty-suppressed feeding (NSF) test; format: in vivo; details: 10 mg/kg orally for 28 days
Method: The novelty-suppressed feeding (NSF) test (Santarelli et al., 2003, Science. 301: 805-9) was performed to assess antidepressant efficacy of T-817MA. Male DBA/2J mice (7 weeks old, 20-21 animals/group) were used. We administrated mice orally with T-817MA (10 mg/kg), or vehicle (distilled water) for 28 days before NSF test. At the time of testing, mice that had been food deprived for 24 hours were gently placed in a corner of a brightly lit arena (approximately 650 lux at floor of arena, 50×50×20 cm) for a maximum of 5 minutes. The floor was covered with approximately 2 cm of bedding. Pellet of food was attached by wire at the center of the arena. […] Statistical differences between vehicle group and T-817MA treated group were found by Dunnett test.

[2] = system: cultured neural stem cells; details: Proc. Natl. Acad. Sci. U.S.A., 2004, 101(47), pp. 16659-64; cited from earlier work

Row | SMILES | Differentiation ratio compared with control group (neurogenesis inducing effect) ([1]; T-817MA 10 μM vs B27 supplemented DMEM/F-12 alone) | Differentiation ratio into neurons (%) (Ratio of Tuj1 positive cells) ([1]; T-817MA 10 μM, 3 days of culturing, B27-supplemented DMEM/F-12, control group 13.0) | NSF latency (mean) (Male DBA/2J mice; mice food deprived 24 hours, vehicle 227.2) | Latency to feed vs vehicle group (Male DBA/2J mice; P<0.01, Dunnett test) | Neurogenesis inducing effect in cultured neural stem cells [2]
1 | OC1CN(CCCOCCc2ccc3sccc3c2)C1 [T-817MA, 1-(3-(2-(1-benzothiophen-5-yl)ethoxy)propyl)azetidin-3-ol] | higher differentiation ratio | 27.4% | 145.5 s | significant decreased latency to feed | –
2 | CCCC(CCC)C(=O)O [valproic acid] | – | – | – | – | show the neurogenesis inducing effect
